From PMC5730604
Like-named read-outs stand apart in the source and are kept apart here. Starred links: 1 amine or outer side, 2 acyl side, 3 side chain; linkers in the order of their positions; H or OH if unused. Positions of bridges follow the written chain, without caps; N, C: chain ends. Non-standard residues stand in square brackets, D forms with d. Residues, ends and D or L forms follow the SMILES beside them. Groups on a side chain read outwards from the residue. *: point of attachment. X1 = O=C(CCCC[C@@H]1SC[C@@H]2NC(=O)N[C@@H]21)NCCCOCCOCCOCCCN*; Tyr(3-NO2) = N[C@@H](Cc1ccc(O)c([N+](=O)[O-])c1)C(=O)O; Glutaryl = O=C(CCCC(=O)[*:2])[*:1]; Hyp = O=C(O)[C@@H]1C[C@@H](O)CN1; PEG4 = NCCOCCOCCOCCOCCC(=O)O

Experiments:
[1] = test system: MHEC5-T; details: Table S1; mouse; flow cytometry, 1 µM biotinylated peptide, 2 mM MnCl2, on ice
[2] = test system: JH4 clone 1; test: Flow cytometry binding to cells; set-up: key to the marks not given beside the values; details: 1 µM biotinylated peptide
[3] = test system: NIH-3T3; details: mouse, flow cytometry, 1 µM biotinylated peptide
Procedure: (§1) from DSMZ or LGC and cultured according to the distributors’ guidelines. Human, murine or
(§2) guinea pig leukocytes or macrophages were isolated and cultured as described below. Cells
(§3) growing in monolayers were detached using trypsin/EDTA and then re- suspended in complete
(§4) culture medium. After washing with washing buffer (W B: 0.9% NaCl, 10 mM Hepes, pH 7.3) at
(§5) 4°C, cells were re-suspended at 2x10^6 cells/ml in peptide blocking b uf f er ( PBB: 0.9% NaCl,
(§6) 10 m M H epes, pH 7.3, 5 m M KCl , 3% BSA, 5% FCS) and incubated for 10 minutes on ice
(§7) concentration in PBB were added to equal volumes of aliquots of 1x10^5 cells, and were
(§8) incubated f or 30 min on ice with repeated shaking to keep the cells in suspension. Except
(§9) three times wit h 1 ml W B, followed by incubation with streptavidin labeled wit h PerCP-Cy5.5
(§10) (BD Biosciences, 200 µg/ml; diluted 1:400 in PBB) for 15 min on ice. After one additional
(§11) wa s h ing step with phosphate- buffered saline (PBS) at 4°C, samples were re-suspended in
(§12) PBS with Hoechst 33258 solution (0.5 µg/ml) and analyzed using a F ACS Canto system ( at
least 1x10^4 cells per sample were counted). Evaluations were performed using FloJo software.
W hole cells were gated i n a FSC/SSC plot and live gating was based on Hoechst exclusion.
After gating out debris, aggregates and dead cells, overlay histograms in the PerCP-Cy5.5
indicated cases the geometrical mean f luorescence was recorded.
For determining binding affinity, a rang e of concentrations of the biotinylated compound was
tested and the f luorescent signals were plotted against concentration. The concentration at
which half-maximum binding intensity was reached (KD) was calculated using Origin 9.0
sof tware and a “one site specif ic binding” fit (y =(Bmax* x) /(KD+x) ).
f luorescent signals were plotted against competitor concentration. The concentration at which

[4] = test system: primary macrophages 7d; test: Flow cytometry binding to cells; details: 1 µM biotinylated peptide; note: key: ++: Strong binding; +: medium binding; +/−: weak binding; −: no binding
[5] = test system: 4T1; details: Table S1; mouse; flow cytometry, 1 µM biotinylated peptide, 2 mM MnCl2, on ice
Procedure: as §1, §2, §3, §4, §5, §6, §7, §8, §9, §10, §11, §12
(§13) least 1x10^4 cells per sample were counted). Evaluations were performed using FloJo software. […]
(§14) indicated cases the geometrical mean f luorescence was recorded. […]
(§15) which half-maximum binding intensity was reached (KD) was calculated using Origin 9.0 […]

[6] = test system: primary macrophages 7 days; test: Flow cytometry binding to cells; details: 1 µM biotinylated peptide; for binding to macrophages 7 days: key: ++: strong binding; +: m edium binding; +/-: weak or heterogeneous binding; -: no binding
[7] = test system: J774A.1; details: mouse, flow cytometry, 1 µM biotinylated peptide
[8] = test system: EG7; details: Table S1; mouse; flow cytometry, 1 µM biotinylated peptide, 2 mM MnCl2, on ice
[9] = test system: E0771; details: Table S1; mouse; flow cytometry, 1 µM biotinylated peptide, 2 mM MnCl2, on ice
Procedure: as §1, §2, §3, §4, §5, §6, §7, §8, §9, §10, §11, §12, §13, §14, §15

[10] = test system: PC-3; test: Flow cytometry binding to cells; set-up: species or system Human; key to the marks not given beside the values; details: 1 µM biotinylated peptide
[11] = test system: primary monocytes; test: Flow cytometry binding to cells; details: 1 µM biotinylated peptide; note: key: ++: Strong binding; +: medium binding; +/−: weak binding; −: no binding
[12] = test system: 3LL-S; details: Table S1; mouse; flow cytometry, 1 µM biotinylated peptide, 2 mM MnCl2, on ice
[13] = test system: A549; set-up: key to the marks not given beside the values; details: Table S1; human; flow cytometry, 1 µM biotinylated peptide, 2 mM MnCl2, on ice
[14] = test system: MDA-MB-231; test: Flow cytometry binding to cells; set-up: key: ++: strong binding; +: m edium binding; +/-: weak or heterogeneous binding; -: no binding; details: Table S1, human, 1 µM biotinylated peptide, 2 mM MnCl2, on ice
[15] = test system: 3LL-R; details: mouse, flow cytometry, 1 µM biotinylated peptide
[16] = test system: C26; details: Table S1; mouse; flow cytometry, 1 µM biotinylated peptide, 2 mM MnCl2, on ice
[17] = test system: HeLa; set-up: key to the marks not given beside the values; details: Table S1; human; flow cytometry, 1 µM biotinylated peptide, 2 mM MnCl2, on ice
[18] = test system: MC38; details: Table S1; mouse; flow cytometry, 1 µM biotinylated peptide, 2 mM MnCl2, on ice
[19] = test system: MCF-7; test: Flow cytometry binding to cells; details: Table S1, human, 1 µM biotinylated peptide, 2 mM MnCl2, on ice; note: key: ++: strong binding; +: m edium binding; +/-: weak or heterogeneous binding; -: no binding
[20] = test system: leukocytes; details: Table S1; rabbit; flow cytometry, 1 µM biotinylated peptide, 2 mM MnCl2, on ice
[21] = test system: K562; test: Flow cytometry binding to cells; set-up: species or system Human; details: 1 µM biotinylated peptide; note: key: ++: Strong binding; +: medium binding; +/−: weak binding; −: no binding
[22] = test system: foreskin fibroblasts; details: flow cytometry, 1 µM biotinylated peptide
[23] = test system: U-87MG; test: Flow cytometry binding to cells; set-up: key: ++: strong binding; +: m edium binding; +/-: weak or heterogeneous binding; -: no binding; details: Table S1, human, 1 µM biotinylated peptide, 2 mM MnCl2, on ice
[24] = test system: primary lymphocytes; test: Flow cytometry binding to cells; details: 1 µM biotinylated peptide; note: key: ++: Strong binding; +: medium binding; +/−: weak binding; −: no binding
[25] = test system: 104C1; test: Flow cytometry binding to cells; set-up: key to the marks not given beside the values; details: 1 µM biotinylated peptide
[26] = test system: TSA; details: Table S1; mouse; flow cytometry, 1 µM biotinylated peptide, 2 mM MnCl2, on ice
[27] = test system: A431; test: Flow cytometry binding to cells; set-up: species or system Human; key to the marks not given beside the values; details: 1 µM biotinylated peptide
[28] = test system: VX2 / J S-2-2r; test: Flow cytometry binding to cells; set-up: key: ++: strong binding; +: m edium binding; +/-: weak or heterogeneous binding; -: no binding; details: Table S1, rabbit, 1 µM biotinylated peptide, 2 mM MnCl2, on ice
[29] = test system: primary monocytes 2 days; test: Flow cytometry binding to cells; details: 1 µM biotinylated peptide; note: key: ++: Strong binding; +: medium binding; +/−: weak binding; −: no binding
[30] = test system: U-138MG; test: Flow cytometry binding to cells; set-up: key: ++: strong binding; +: m edium binding; +/-: weak or heterogeneous binding; -: no binding; details: Table S1, human, 1 µM biotinylated peptide, 2 mM MnCl2, on ice
[31] = test system: HT-29; test: Flow cytometry binding to cells; set-up: key: ++: strong binding; +: m edium binding; +/-: weak or heterogeneous binding; -: no binding; details: Table S1, human, 1 µM biotinylated peptide, 2 mM MnCl2, on ice
[32] = test system: primary granulocytes; test: Flow cytometry binding to cells; details: 1 µM biotinylated peptide; note: key: ++: Strong binding; +: medium binding; +/−: weak binding; −: no binding
[33] = test system: PBEC; details: Table S1; pig; flow cytometry, 1 µM biotinylated peptide, 2 mM MnCl2, on ice
[34] = test system: PC-3 or A431 cells; details: PC-3 or A431 cells, incubated at 37 °C, streptavidin staining
Procedure: washed as described above and then re-suspended in Eagle’s minimum essential medium
incubated on ice or at 37°C. At different time points after washing 50 µl samples were taken
and added to 50 µl of Streptavidin- PerCP-Cy5.5 (diluted 1:200), incubated on ice f or 15 min,
washed with PBS, and analyzed in PBS with Hoechst solution. Fluorescent signals were
plotted against time between washing and streptavidin addition.
over time after incubation on ice and at 37°C.
labeled streptavidin as described previously f or flow cytometry assays.

[35] = test system: GPC-16; test: Flow cytometry binding to cells; set-up: key to the marks not given beside the values; details: 1 µM biotinylated peptide
[36] = test system: HUVEC; test: Flow cytometry binding to cells; set-up: species or system Human; details: 1 µM biotinylated peptide
[37] = test system: Hepa1–6; details: mouse, flow cytometry, 1 µM biotinylated peptide
[38] = test system: L-929; details: Table S1; mouse; flow cytometry, 1 µM biotinylated peptide, 2 mM MnCl2, on ice
Procedure: as §1, §2, §3, §4, §5, §6, §7, §8, §9, §10, §11, §12, §13, §14, §15

[39] = Table S1, guinea pig, 2 mM MnCl2, on ice
[40] = guinea pig, 2 mM MnCl2, 30 min on ice, streptavidin-PerCP-Cy5.5
[41] = 2 mM MnCl2, 30 min on ice, streptavidin-PerCP-Cy5.5
[42] = Table S1, human, 2 mM MnCl2, on ice
[43] = human, 2 mM MnCl2, 30 min on ice, streptavidin-PerCP-Cy5.5

## NC(=O)C[C@@H]1NC(=O)[C@@H]2C[C@@H](O)CN2C(=O)CNC(=O)[C@H](Cc2ccc(O)c([N+](=O)[O-])c2)NC(=O)CNC(=O)[C@@H](CC(=O)O)NC(=O)[C@H](N)CSSC[C@H](C(=O)NCCOCCOCCOCCOCCC(=O)N[C@@H](CCCCNC(=O)CCCC(=O)NCCCOCCOCCOCCCNC(=O)CCCC[C@@H]2SC[C@@H]3NC(=O)N[C@@H]32)C(N)=O)NC1=O [B9-Biotin] (H-[dC][dD]G[Tyr(3-NO2)]G[Hyp]N[dC][PEG4]K([Glutaryl-X1])-NH2; disulfide 1-8)
[1]
  binding to MHEC5-T: +
[2]; [39]
  binding to JH4 clone 1: ++
[2]; [40]
  binding to JH4 clone 1: ++
[3]; Table S1, 2 mM MnCl2, on ice
  binding to NIH-3T3: +
[3]; [41]
  binding to NIH-3T3: +
[4]; Table S1, mouse, 2 mM MnCl2, on ice
  binding to macrophages 7d: -
[4]; mouse, 2 mM MnCl2, 30 min on ice, streptavidin-PerCP-Cy5.5
  binding to primary macrophages 7d: −
[5]
  binding to 4T1: +
[6]; [42]
  binding to macrophages 7 days: +/-
[6]; [43]
  binding to primary macrophages 7 days: +/−
[7]; Table S1, 2 mM MnCl2, on ice
  binding to J774A.1: -
[7]; [41]
  binding to J774A.1: −
[8]
  binding to EG7: -
[9]
  binding to E0771: -
[10]; [41]
  binding to PC-3: ++
[10]; [42]
  binding to PC-3: ++
[11]; [42]
  binding to fresh monocytes: -
[11]; [43]
  binding to primary monocytes: −
[12]
  binding to 3LL-S: +
[13]
  binding to A549: ++
[14]
  binding to MDA-MB-231: ++
[15]; Table S1, 2 mM MnCl2, on ice
  binding to 3LL-R: +
[15]; [41]
  binding to 3LL-R: +
[16]
  binding to C26: +
[17]
  binding to HeLa: ++
[18]
  binding to MC38: -
[19]
  binding to MCF-7: +
[20]
  binding to leukocytes: -
[21]; [41]
  binding to K562: −
[21]; [42]
  binding to K562: -
[22]; [42]
  binding to foreskin fibroblasts: -
[22]; [41]
  binding to foreskin fibroblasts: −
[23]
  binding to U-87MG: ++
[24]; [42]
  binding to fresh lymphocytes: -
[24]; [43]
  binding to primary lymphocytes: −
[25]; [39]
  binding to 104C1: ++
[25]; [40]
  binding to 104C1: ++
[26]
  binding to TSA: +
[27]; [41]
  binding to A431: ++
[27]; [42]
  binding to A431: ++
[28]
  binding to VX2 / J S-2-2r: ++
[29]; [42]
  binding to monocytes 2 days: -
[29]; [43]
  binding to primary monocytes 2 days: −
[30]
  binding to U-138MG: ++
[31]
  binding to HT-29: ++
[32]; [42]
  binding to fresh granulocytes: -
[32]; [43]
  binding to primary granulocytes: −
[33]
  binding to PBEC: +
[34]
  streptavidin signal on cells after 5 min: no signal above background
[35]; [39]
  binding to GPC-16: ++
[35]; [40]
  binding to GPC-16: ++
[36]; [41]
  binding to HUVEC: +
[36]; [42]
  binding to HUVEC: +
[37]; Table S1, 2 mM MnCl2, on ice
  binding to Hepa1-6: +
[37]; [41]
  binding to Hepa1–6: +
[38]
  binding to L-929: -
